Eleven compounds from patent US9663458B2, “Diaminoguanidine derivatives and application thereof in preparation of animal growth promoters used in feed” (priority 2014, dated 2017) can be followed below.

One data set concerns cherry valley ducks. Put plainly: Feeding trial (ducks). Particulars: 20 ppm in basal diet, 30 days; for Average feed conversion efficiency: control 2.16; for Average weight gain: control 55.8. It is filed as in vivo. An excerpt:
800 1-day-old cherry valley ducks were divided into 8 groups, 100 ducks in each group. […] The compounds of IST_007 series can substantially enhance the productivity of the ducks, concluded from the results.

The subject of the next data set is Clostridium perfringens. The data set can be described thus: microbe, parasite or virus in culture. It is filed as cell-based.
Data set [1] deals with yellow feather broilers (female). The data set can be described thus: Feeding trial (broilers). It is filed as in vivo. To be noted: 20 ppm in feed, 30 days; for Feed conversion efficiency: controls 2.15, 2.11, hydrochloride; for Average daily weight gain: controls 23.7, hydrochloride; for Average weight gain: controls 713, 712, hydrochloride; for Consumption: group of 50, controls 76.6, 75.2, hydrochloride. An excerpt: 400 1-day-aged, healthy, fast-grown yellow feather broilers (female) in the same growing state and similar in weight were randomly divided into eight groups according to table 5, 50 broilers in each group. Broilers in each group were fed with different dosage of the IST_007 series compounds.

Data set [2] has as its system Duroc-YorkShire-Landrace crossbred lean pigs. Put plainly: Feeding trial (pigs). Particulars: 25 mg/kg mixed with feed, 14 days; for Average daily weight gain: controls 0.44, 0.43, hydrochloride; for Feed conversion efficiency: controls 2.13, 2.11, hydrochloride; for Average weight gain: controls 6.2, 6.1, hydrochloride; for Consumption: group of 15, controls 198.3, 192.9, hydrochloride.

Setting [3] is: read-out: Minimum inhibitory concentration (MIC), strain RA-FS-1308-1, in vitro.
[4] abbreviates: read-out: Minimum inhibitory concentration (MIC), strain RA-GD-1211-D, in vitro.
[5] abbreviates: read-out: Minimum inhibitory concentration (MIC), strain RA-HN-1211-C, in vitro.
The mark [6] stands for this setting: read-out: Minimum inhibitory concentration (MIC), strain CP-JM-1208-H, in vitro.
[7] abbreviates: read-out: Minimum inhibitory concentration (MIC), strain CP-JM-1210-B, in vitro.
[8] abbreviates: read-out: Minimum inhibitory concentration (MIC), strain CP-JM-1210-E, in vitro.

“And” between values parts separate entries of the source, which are not always exact repeats. Equal entries are not always repeated. Where two headings read alike, the source gives them in different places.

As to `COc1ccc(/C=N/NC(=N)N/N=C/c2ccc(OC)cc2)cc1.Cl` [IST_007_001, 1,3-bis[(4-methoxybenzylidene)amino]guanidine hydrochloride], the “Survival rate (%)” value (in the data set with cherry valley ducks; in data set [1]) was 100% each time. Besides, the “Average feed conversion efficiency” value in the data set with cherry valley ducks was 2.01. The Average weight gain with cherry valley ducks was 62.1; in data set [1], 764 g and 775 g. Also, the MIC was determined as 6.25 µg/mL with Riemerella anatipestifer (setting [3]); 3.13 µg/mL in the data set on Riemerella anatipestifer (setting [4]); 3.13 µg/mL with Riemerella anatipestifer (setting [5]); 12.5 µg/mL with Clostridium perfringens (setting [6]); 1.56 µg/mL in the data set on Clostridium perfringens (setting [7]); 50 µg/mL in the data set with Clostridium perfringens (setting [8]). Also, the Feed conversion efficiency in data set [1] was 1.88 and 1.91. In addition, the “Average daily weight gain” value in data set [1] is 25.5 g and 25.8 g. Also, the “Consumption” value in data set [1] was 71.7 kg and 73.8 kg.

Turning to `CCOc1ccc(C=NNC(=N)NN=Cc2ccc(OCC)cc2)cc1.Cl` [IST_007_002, 1,3-bis[(4-ethoxybenzylidene)amino]guanidine hydrochloride], the MIC with Riemerella anatipestifer (setting [3]) is above 100 µg/mL; in the data set on Riemerella anatipestifer (setting [4]), above 100 µg/mL; in the data set on Riemerella anatipestifer (setting [5]) it was above 100 µg/mL; with Clostridium perfringens (setting [6]), above 100 µg/mL; in the data set on Clostridium perfringens (setting [7]), 0.2 µg/mL; in the data set with Clostridium perfringens (setting [8]), above 100 µg/mL.

Regarding `CC(C)Oc1ccc(C=NNC(=N)NN=Cc2ccc(OC(C)C)cc2)cc1.Cl` [IST_007_003, 1,3-bis[(4-isopropoxybenzylidene)amino]guanidine hydrochloride], the “Survival rate (%)” value (with cherry valley ducks; in data set [1]) was 100% in each case. For the same compound, the “Average feed conversion efficiency” value in the data set on cherry valley ducks is 2.03. For the same compound, the Average weight gain in the data set with cherry valley ducks was 63.6; in data set [2], 7.8 kg and 8.2 kg; in data set [1], 791 g and 795 g. The MIC in the data set on Riemerella anatipestifer (setting [3]) was 1.56 µg/mL; with Riemerella anatipestifer (setting [4]), 1.56 µg/mL; with Riemerella anatipestifer (setting [5]), 1.56 µg/mL; in the data set with Clostridium perfringens (setting [6]) it was 12.5 µg/mL; in the data set on Clostridium perfringens (setting [7]), 3.13 µg/mL; with Clostridium perfringens (setting [8]) it was 12.5 µg/mL. Further, the “Average daily weight gain” value is 0.56 kg/day and 0.58 kg/day in data set [2]; 26.3 g and 26.5 g in data set [1]. Moreover, the Feed conversion efficiency was 1.84 and 1.65 in data set [2]; 1.86 and 1.82 in data set [1]. In addition, the “Consumption” value is 215.3 kg and 203.4 kg in data set [2]; 73.7 kg and 72.3 kg in data set [1].

Consider `CCCCOc1ccc(C=NNC(=N)NN=Cc2ccc(OCCCC)cc2)cc1.Cl` [IST_007_005, 1,3-bis[(4-butoxybenzylidene)amino]guanidine hydrochloride], for which the “Survival rate (%)” value (in the data set with cherry valley ducks; in data set [1]) was 100% in each case. Also, the “Average feed conversion efficiency” value in the data set on cherry valley ducks turned out to be 2.07. Further, the Average weight gain in the data set on cherry valley ducks is 62.4; in data set [1] it was 796 g and 787 g. The MIC was 1.56 µg/mL in the data set with Riemerella anatipestifer (setting [3]); 1.56 µg/mL with Riemerella anatipestifer (setting [4]); 1.56 µg/mL with Riemerella anatipestifer (setting [5]); 12.5 µg/mL in the data set with Clostridium perfringens (setting [6]); 0.78 µg/mL in the data set on Clostridium perfringens (setting [7]); 25 µg/mL with Clostridium perfringens (setting [8]). Also, the Feed conversion efficiency in data set [1] is 1.86 and 1.84. For the same compound, in data set [1], the “Average daily weight gain” value was 26.5 g and 26.2 g. In addition, the “Consumption” value in data set [1] is 74.1 kg and 72.5 kg.

On to `CCCCCOc1ccc(C=NNC(=N)NN=Cc2ccc(OCCCCC)cc2)cc1.Cl` [IST_007_019, 1,3-bis[(4-pentoxybenzylidene)amino]guanidine hydrochloride], for which the MIC in the data set on Riemerella anatipestifer (setting [3]) was above 200 µg/mL; in the data set on Riemerella anatipestifer (setting [4]) it was 0.39 µg/mL; in the data set with Riemerella anatipestifer (setting [5]), above 200 µg/mL; in the data set on Clostridium perfringens (setting [6]), above 200 µg/mL; in the data set on Clostridium perfringens (setting [7]) it was above 200 µg/mL; with Clostridium perfringens (setting [8]), above 200 µg/mL.

For the compound `CCCCCCCCOc1ccc(C=NNC(=N)NN=Cc2ccc(OCCCCCCCC)cc2)cc1.Cl` [IST_007_020, 1,3-bis[(4-octoxybenzylidene)amino]guanidine hydrochloride], the MIC with Riemerella anatipestifer (setting [3]), with Riemerella anatipestifer (setting [4]), with Riemerella anatipestifer (setting [5]), in the data set with Clostridium perfringens (setting [6]), with Clostridium perfringens (setting [7]) and in the data set on Clostridium perfringens (setting [8]) was above 200 µg/mL in each case.

For `CCC(C)Oc1ccc(C=NNC(=N)NN=Cc2ccc(OC(C)CC)cc2)cc1.Cl` (centres unmarked) [IST_007_022, 1,3-bis[(4-sec-butoxybenzylidene)amino]guanidine hydrochloride], the “Survival rate (%)” value with cherry valley ducks amounted to 100%. Also, the “Average feed conversion efficiency” value in the data set with cherry valley ducks is recorded as 2.08. In addition, the Average weight gain in the data set on cherry valley ducks was 61.3. Besides, the MIC in the data set with Riemerella anatipestifer (setting [3]) was found to be 1.56 µg/mL; in the data set on Riemerella anatipestifer (setting [4]), 0.2 µg/mL; in the data set on Riemerella anatipestifer (setting [5]), 1.56 µg/mL; in the data set on Clostridium perfringens (setting [6]) it was 12.5 µg/mL; in the data set with Clostridium perfringens (setting [7]) it was 12.5 µg/mL; with Clostridium perfringens (setting [8]) it was 12.5 µg/mL.

In the case of `CCC(CC)Oc1ccc(C=NNC(=N)NN=Cc2ccc(OC(CC)CC)cc2)cc1.Cl` [IST_007_023, 1,3-bis[[4-(3-pentoxy)benzylidene]amino]guanidine hydrochloride], the “Survival rate (%)” value in the data set with cherry valley ducks amounted to 100%. The “Average feed conversion efficiency” value with cherry valley ducks is listed as 2.05. Moreover, in the data set with cherry valley ducks, the Average weight gain is 62.4. Besides, the MIC with Riemerella anatipestifer (setting [3]) stood at 1.56 µg/mL; in the data set on Riemerella anatipestifer (setting [4]) it was 0.78 µg/mL; with Riemerella anatipestifer (setting [5]), 1.56 µg/mL; in the data set with Clostridium perfringens (setting [6]) it was 12.5 µg/mL; in the data set with Clostridium perfringens (setting [7]), 12.5 µg/mL; in the data set on Clostridium perfringens (setting [8]), 12.5 µg/mL.

Consider `Cl.N=C(NN=Cc1ccc(OC2CCCC2)cc1)NN=Cc1ccc(OC2CCCC2)cc1` [IST_007_024, 1,3-bis[(4-cyclopentoxybenzylidene)amino]guanidine hydrochloride], for which, in the data set on cherry valley ducks, the “Survival rate (%)” value is reported as 100%. In the data set on cherry valley ducks, the “Average feed conversion efficiency” value worked out at 2.09. Besides, the Average weight gain with cherry valley ducks came out at 63.1. The MIC with Riemerella anatipestifer (setting [3]) was determined as 0.39 µg/mL; in the data set with Riemerella anatipestifer (setting [4]), 0.78 µg/mL; with Riemerella anatipestifer (setting [5]) it was 0.39 µg/mL; with Clostridium perfringens (setting [6]) it was 1.56 µg/mL; with Clostridium perfringens (setting [7]) it was 1.56 µg/mL; with Clostridium perfringens (setting [8]), 3.13 µg/mL.

As to `Cl.N=C(NN=Cc1ccc(OCc2ccccc2)cc1)NN=Cc1ccc(OCc2ccccc2)cc1` [IST_007_025, 1,3-bis[(4-benzyloxybenzylidene)amino]guanidine hydrochloride], the MIC in the data set on Riemerella anatipestifer (setting [3]) was above 200 µg/mL; in the data set with Riemerella anatipestifer (setting [4]), 0.39 µg/mL; in the data set with Riemerella anatipestifer (setting [5]) it was above 200 µg/mL; in the data set with Clostridium perfringens (setting [6]), above 200 µg/mL; in the data set on Clostridium perfringens (setting [7]), 100 µg/mL; in the data set with Clostridium perfringens (setting [8]), above 200 µg/mL.

For `CCCOc1ccc(C=NNC(=N)NN=Cc2ccc(OCCC)cc2)cc1.Cl` [IST_007_028, 1,3-bis[(4-propoxybenzylidene)amino]guanidine hydrochloride], the “Survival rate (%)” value with cherry valley ducks is reported as 100%. In addition, the “Average feed conversion efficiency” value in the data set with cherry valley ducks is recorded as 2.04. Also, the Average weight gain in the data set on cherry valley ducks was 61.6; in data set [2], 7.7 kg and 7.3 kg. In addition, the MIC with Riemerella anatipestifer (read-out: Minimum inhibitory concentration (MIC)) was found to be 1.56 µg/mL; in the data set on Riemerella anatipestifer (setting [4]), 0.39 µg/mL; with Riemerella anatipestifer (setting [5]), 0.39 µg/mL; in the data set on Clostridium perfringens (setting [6]), 1.56 µg/mL; with Clostridium perfringens (setting [7]), 1.56 µg/mL; in the data set on Clostridium perfringens (setting [8]), 1.56 µg/mL. In data set [2], the “Average daily weight gain” value is 0.55 kg/day and 0.52 kg/day. In addition, in data set [2], the Feed conversion efficiency was 1.75 and 1.85. In data set [2], the “Consumption” value is 201.3 kg and 202.5 kg.
